Data set [1] has as its system HCT-116 cells. The experiment in a line: Cell cycle analysis (PI, flow cytometry). It counts as cell-based. As to conditions: 24 h, control 7.77%. On the procedure:
To assess the impact of compound 10e on the cell cycle, HCT-116 cells were treated with different concentrations of compound 10e (5 μM, 10 μM, and 20 μM) for 24 h, then stained with PI, and analyzed using flow cytometry.
Cell Bank at the Chinese Academy of Sciences. Hct-116, SW480, MDA-MB-231 and MCF-7 cell […]
FBS. DMEM and FBS were obtained from Gibco-Thermo (BRL Co. Ltd., USA). The plates were incubated at 37 °C in a humidified atmosphere of 5% CO2/95% air overnight. The cells were then […]
another 48 h. The cells were stained with 10 μl of MTT at incubator for approximately 4 h. The medium was discarded and replaced by […] DMSO. The O.D. value was read at 570/630 nm with a spectrophotometer.
Section S 1.4 Molecular docking
Molecular docking was carried out in Sybyl-X 2.1 on a Windows workstation. The crystal structure of IDO1 protein with inhibitor was retrieved from the RCSB Protein Data Bank (IDO1:
4PK5, HDAC6: 6THV). Firstly, the 3D structure of the selected compound was built with Sybyl-X 2.1 sketch followed by energy minimization with the MMFF94 force field and Gasteiger-Marsili charges. The Powell’s method was used to optimize the geometry with a distance dependent dielectric constant and a termination energy gradient of 0.005 kcal/mol. […]
with 75% cold ethanol at 4 °C overnight. […] The samples were measured using flow cytometry and analyzed by Flowjo software. […]
Total cell lysates from cultured HCT-116 cells after treatment with compound 10e as mentioned earlier were obtained by lysing the cells in ice-cold RIPA buffer with protease and phosphatase inhibitor and stored at -20°C for future use. The protein concentrations were quantified by the Bradford method (Bio-Rad) using a Multimode Varioscan instrument (Thermo Fischer Scientific).
Equal amounts of protein per lane were applied to 12% SDS polyacrylamide gel for electrophoresis and transferred to a polyvinylidene difluoride (PVDF) membrane (Amersham Biosciences). […] Membranes were washed with TBST three times for 15 min and the protein bands were detected with chemiluminescence reagent (Thermo Fischer Scientific). […]
(A flow cytometer gives signals particle by particle.)

The next data set concerns the target HDAC4 (Homo sapiens, UniProt P56524). Kind of data set: HDAC isoform selectivity assay, HDAC4. To be noted: read-out: HDAC4 % inhibition rate at 10 μM. It counts as biochemical.
Data set [2] relates to Ac-histone H3 (substrate for HDACs 1, 2, and 3). The experiment in a line: Western blot of Ac-histone H3 in HCT-116 cells. It is filed as cell-based. As to conditions: HCT-116, 20 μM, 24 h. As for the experimental part:
Since HDACs regulate the acetylation status of histone and nonhistone proteins in cells, the acetylation levels of histone H3 (a known substrate for HDACs 1, 2, and 3) and α-tubulin (a known substrate for HDAC6) are frequently used as markers of cellular HDAC activity. […] HCT-116 cells were incubated with compound 10e (5−20 μM) for 24 h, and the levels of acetylation of histone H3 and α-tubulin were detected by the Western blot. […]
with 75% cold ethanol at 4 °C overnight. After that, fixed cells were washed with PBS. Then, cells were isolated by centrifugation and stained with propidium iodide (KeyGEN BioTECH, China) for 30 min. The samples were measured using flow cytometry and analyzed by Flowjo software.
Section S 1.6 Western blot assay
Total cell lysates from cultured HCT-116 cells after treatment with compound 10e as mentioned earlier were obtained by lysing the cells in ice-cold RIPA buffer with protease and phosphatase inhibitor and stored at -20°C for future use. The protein concentrations were quantified by the Bradford method (Bio-Rad) using a Multimode Varioscan instrument (Thermo Fischer Scientific). […]
The in vivo antitumor activity of compound 10e was evaluated in the mouse colon carcinoma cell line CT-26 in BALB/c mice as described previously. […]
For orientation: Immunoblotting shows a protein as a band on a membrane.

A short description of data set [3]: Cell viability assay, HK2 normal renal cells. To be noted: human.
Text: On the basis of the IDO1 and HDAC activities, we explored the proliferation inhibitory activities of the selected compounds against four solid tumor cells lines.
Data set [4] concerns HCT-116 cells. The experiment in a line: Cell viability (MTT) assay, HCT-116. To be noted: Homo sapiens, HCT-116, 48 h, read-out: Antiproliferative IC50, HCT-116.
Experimental: Section S 1.3 Cell viability assays
another 48 h. The cells were stained with 10 μl of MTT at incubator for approximately 4 h. The medium was discarded and replaced by 100 mL DMSO. The O.D. value was read at 570/630 nm with a spectrophotometer.
Another data set concerns the target HDAC1 (Homo sapiens, UniProt Q13547). Kind of data set: HDAC isoform selectivity assay, HDAC1. It is filed as biochemical.

A value given as a limit tells only on which side of the number the result lay.

Sequence of HDAC4 (P56524 whole entry, species assumed, canonical isoform): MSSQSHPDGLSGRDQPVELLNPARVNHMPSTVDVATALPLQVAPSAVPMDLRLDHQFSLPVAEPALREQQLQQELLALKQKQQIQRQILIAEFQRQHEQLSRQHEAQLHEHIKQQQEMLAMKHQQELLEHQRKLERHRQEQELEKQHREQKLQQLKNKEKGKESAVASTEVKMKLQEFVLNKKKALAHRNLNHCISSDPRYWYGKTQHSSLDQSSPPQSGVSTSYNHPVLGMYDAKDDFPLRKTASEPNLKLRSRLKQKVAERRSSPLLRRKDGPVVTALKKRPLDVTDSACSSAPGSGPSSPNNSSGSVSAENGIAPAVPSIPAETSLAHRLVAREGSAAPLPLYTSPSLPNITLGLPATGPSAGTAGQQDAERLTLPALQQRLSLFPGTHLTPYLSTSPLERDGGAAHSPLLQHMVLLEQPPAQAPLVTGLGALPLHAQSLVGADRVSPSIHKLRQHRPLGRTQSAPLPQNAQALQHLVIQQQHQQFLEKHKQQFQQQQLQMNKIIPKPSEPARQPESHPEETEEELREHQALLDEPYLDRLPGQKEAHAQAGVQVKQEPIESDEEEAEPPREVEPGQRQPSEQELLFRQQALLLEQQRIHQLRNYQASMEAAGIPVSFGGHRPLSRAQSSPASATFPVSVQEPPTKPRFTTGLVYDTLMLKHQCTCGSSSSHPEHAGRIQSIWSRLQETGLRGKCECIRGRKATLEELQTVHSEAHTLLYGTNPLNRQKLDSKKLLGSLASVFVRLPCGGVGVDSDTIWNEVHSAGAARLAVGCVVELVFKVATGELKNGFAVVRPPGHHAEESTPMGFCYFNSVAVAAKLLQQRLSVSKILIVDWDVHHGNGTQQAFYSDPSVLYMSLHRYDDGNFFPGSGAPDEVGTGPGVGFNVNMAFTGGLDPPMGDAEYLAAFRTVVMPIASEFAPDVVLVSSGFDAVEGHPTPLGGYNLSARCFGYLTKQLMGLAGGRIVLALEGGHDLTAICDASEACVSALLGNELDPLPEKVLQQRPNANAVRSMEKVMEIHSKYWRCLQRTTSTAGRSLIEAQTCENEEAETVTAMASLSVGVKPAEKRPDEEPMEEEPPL
Sequence of HDAC1 (Q13547 whole entry, species assumed, canonical isoform): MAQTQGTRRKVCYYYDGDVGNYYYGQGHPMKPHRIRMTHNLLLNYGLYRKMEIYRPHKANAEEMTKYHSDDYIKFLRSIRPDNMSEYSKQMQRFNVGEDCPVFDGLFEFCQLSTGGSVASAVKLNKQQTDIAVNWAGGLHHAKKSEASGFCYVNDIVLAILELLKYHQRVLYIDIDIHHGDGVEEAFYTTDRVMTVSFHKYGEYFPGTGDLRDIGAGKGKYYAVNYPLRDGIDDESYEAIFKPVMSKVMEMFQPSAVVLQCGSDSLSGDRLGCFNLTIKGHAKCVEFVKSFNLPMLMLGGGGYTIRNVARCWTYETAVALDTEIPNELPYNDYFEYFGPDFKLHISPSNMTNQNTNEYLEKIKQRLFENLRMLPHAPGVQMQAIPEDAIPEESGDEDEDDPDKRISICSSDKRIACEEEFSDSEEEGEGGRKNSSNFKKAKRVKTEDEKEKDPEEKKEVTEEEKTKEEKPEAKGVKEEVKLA

As a reminder, the inhibition is the drop in the measured response relative to a control, in per cent. The IC50 is the concentration that inhibits the measured activity by half. As for `O=C(CCCCCCNc1ccc(NC(=O)c2cnc3scc(-c4ccc(Br)cc4)n23)cc1)NO` [Compound 10e, 3-(4-Bromophenyl)-N-{4-[(7-(hydroxyamino)-7-oxoheptyl)amino]phenyl}imidazo[2,1-b]thiazole-5-carboxamide], the “cell population in G2/M phase” value is 17.39% in the data set on HCT-116 cells [1] (HCT-116, 5 μM); 31.89% with HCT-116 cells [1] (HCT-116, 10 μM); 47.18% in the data set on HCT-116 cells [1] (HCT-116, 20 μM). Moreover, the inhibition at 10 µM on HDAC4 turned out to be 9.58%. The “Ac-histone H3 levels” value in data set [2] is reported as “slight increase”. Further, the IC50 is greater than 80 µM in data set [3], 16.4 ± 3.76 µM in the data set with HCT-116 cells [4] and 1.08 µM on HDAC1.

The values above are taken from PMC12195740, “Discovery of Novel Imidazothiazole-Based Hydroxamic Acid Derivatives as Potent Indoleamine 2,3-Dioxygenase 1 and Histone Deacetylase 6 Dual Inhibitors” (Molecules, 2025).
